How the values were obtained:
[1] = tested on: LNCaP cells (T877A mutation in the AR LBD); test: PSA level (ELISA) in LNCaP cell line; assay type: cell-based, human; conditions: for IC50: Homo sapiens, LNCaP, dihydrotestosterone 10 nM, 48 h, ± SEM
From the text: Chronic administration of AR antagonists often leads to the development of resistance. […] In contrast, another AR antagonist, enzalutamide, was reported to antagonize AR mutant T877A [23]. Thus, development of a novel chemical class of AR antagonists, different from flutamide analogs seems an attractive approach for the treatment of AR antagonist-resistant cancer, providing further motivation to evaluate steroid surrogates. Therefore, we investigated the antiandrogenic activity of several potent AR antagonists by means of PSA (prostate-specific antigen, an AR-regulated gene) ELISA (enzyme-linked immunosorbent assay) in human prostate cancer cell line LNCaP, which has T877A mutation in the AR LBD.
The human prostate cancer cell line LNCaP (ECACC, London, UK) was routinely maintained in RPMI1640 containing 10% (v/v) fetal bovine serum, and penicillin/streptomycin at 37 °C in a humidified atmosphere of 5% CO2 in air. Cells were cultured in RPMI1640 without phenol red containing 10% (v/v) charcoal-stripped fetal bovine serum, and penicillin/streptomycin at 37 °C in a humidified atmosphere of 5% CO2 in air for 3 days. Then cells were plated in 96-well plates at 1 × 10^4 cells/well and incubated overnight. On the next day, cells were treated with fresh media containing test compound plus dihydrotestosterone (final concentration 10 nM), and incubated for 48 h. Then, PSA levels were measured in the culture supernatants, after 100-fold dilution with the medium, using ELISA (Immunospec Corp., CA, USA Free prostate-specific antigen cat. #E29-212) according to the manufacturer’s instructions. All data points were carried out twice in triplicate.

RORβ = target: T1, RORβ (Homo sapiens, UniProt Q92753); test: RORβ inverse agonist reporter gene assay in HEK293; assay type: cell-based; conditions: new compound 43, read-out: RORβ inverse agonistic activity (IC50)
T1 construct: expressed in transfected cells; host or cells: HEK293
T1 sequence (Q92753 1-459 isoform Q92753-1): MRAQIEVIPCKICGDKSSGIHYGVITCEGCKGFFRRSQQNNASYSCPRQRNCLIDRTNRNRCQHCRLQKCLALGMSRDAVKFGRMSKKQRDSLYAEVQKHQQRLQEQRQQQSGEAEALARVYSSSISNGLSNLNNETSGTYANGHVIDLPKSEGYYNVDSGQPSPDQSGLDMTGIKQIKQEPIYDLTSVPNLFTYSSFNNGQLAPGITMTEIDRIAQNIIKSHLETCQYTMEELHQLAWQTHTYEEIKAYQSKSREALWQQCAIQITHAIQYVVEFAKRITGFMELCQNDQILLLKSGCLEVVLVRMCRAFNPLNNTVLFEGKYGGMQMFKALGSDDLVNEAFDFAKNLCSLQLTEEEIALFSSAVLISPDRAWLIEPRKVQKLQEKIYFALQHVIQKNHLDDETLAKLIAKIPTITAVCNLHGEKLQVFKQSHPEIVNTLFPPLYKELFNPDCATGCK

PR = target: T2, PR (Homo sapiens, UniProt P06401); test: T-47D alkaline phosphatase assay (PR antagonism); assay type: cell-based
T2 sequence (P06401 1-933): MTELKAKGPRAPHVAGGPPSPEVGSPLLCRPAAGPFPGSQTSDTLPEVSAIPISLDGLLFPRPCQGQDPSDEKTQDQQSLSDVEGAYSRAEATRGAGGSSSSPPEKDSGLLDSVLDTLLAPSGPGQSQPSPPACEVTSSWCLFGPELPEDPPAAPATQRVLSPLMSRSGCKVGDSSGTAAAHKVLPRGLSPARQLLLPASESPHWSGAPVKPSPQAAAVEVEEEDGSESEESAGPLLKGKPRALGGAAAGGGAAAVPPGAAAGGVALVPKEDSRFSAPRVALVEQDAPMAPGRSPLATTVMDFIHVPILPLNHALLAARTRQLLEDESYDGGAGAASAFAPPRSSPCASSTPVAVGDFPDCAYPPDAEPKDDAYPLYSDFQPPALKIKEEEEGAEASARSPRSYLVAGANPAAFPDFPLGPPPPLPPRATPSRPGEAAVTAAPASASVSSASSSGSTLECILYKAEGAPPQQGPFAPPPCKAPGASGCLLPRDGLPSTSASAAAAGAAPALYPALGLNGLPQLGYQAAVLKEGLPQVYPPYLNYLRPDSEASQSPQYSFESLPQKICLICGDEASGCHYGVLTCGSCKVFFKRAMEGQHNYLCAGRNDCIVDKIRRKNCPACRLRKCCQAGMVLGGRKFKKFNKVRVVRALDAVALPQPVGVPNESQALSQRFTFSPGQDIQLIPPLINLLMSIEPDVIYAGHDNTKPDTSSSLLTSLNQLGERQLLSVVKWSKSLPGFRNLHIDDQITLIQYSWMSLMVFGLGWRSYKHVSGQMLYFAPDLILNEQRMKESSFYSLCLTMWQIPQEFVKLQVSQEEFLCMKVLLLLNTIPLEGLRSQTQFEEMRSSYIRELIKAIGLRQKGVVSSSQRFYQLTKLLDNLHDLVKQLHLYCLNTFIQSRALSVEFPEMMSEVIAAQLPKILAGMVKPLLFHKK

LXRβ = target: T3, LXRβ (Homo sapiens, UniProt P55055); conditions: read-out: LXRβ antagonistic activity (IC50); cited from earlier work
T3 construct: CMX-GAL4N-hLXRβ-LBD; expressed in transfected cells; host or cells: HEK293
T3 sequence (P55055 222-460 limits assumed): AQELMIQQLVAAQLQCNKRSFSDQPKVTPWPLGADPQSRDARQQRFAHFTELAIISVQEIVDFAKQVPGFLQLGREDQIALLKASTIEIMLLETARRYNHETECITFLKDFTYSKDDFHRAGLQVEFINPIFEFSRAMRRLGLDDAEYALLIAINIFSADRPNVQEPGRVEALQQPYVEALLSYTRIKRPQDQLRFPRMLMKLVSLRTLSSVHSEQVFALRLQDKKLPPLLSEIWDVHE

IC50 [1] [nM] | SMILES | other results
560 ± 260 | CCCCn1c(=O)c2ccccc2c2cc(C(O)(C(F)(F)F)C(F)(F)F)c3c(c21)OCO3 [Compound 26] | –
> 10000 | O=c1[nH]c2c(Cl)cc(C(O)(C(F)(F)F)C(F)(F)F)cc2c2ccccc12 [Compound 43, 4-Chloro-2-(1,1,1,3,3,3-hexafluoro-2-hydroxypropan-2-yl)phenanthridin-6(5H)-one] | IC50 (RORβ): > 20000 nM; IC50 (PR; alkaline phosphatase, T47D cells, progesterone 1 nM, new compound 43, read-out: PR antagonistic activity (IC50)): 350 nM; antiandrogenic activity in LNCaP [1]: did not show antiandrogenic activity
– | CCCCn1c(=O)c2ccc(OC)cc2c2cc(C(O)(C(F)(F)F)C(F)(F)F)ccc21 [Compound 23] | weaker PR activity than 12 (PR): 5 fold
490 ± 260 | O=c1[nH]c2c(F)cc(C(O)(C(F)(F)F)C(F)(F)F)cc2c2ccccc12 [Compound 32] | –
> 10000 | Cn1c(=O)c2ccccc2c2cc(C(O)(C(F)(F)F)C(F)(F)F)ccc21 [Compound 13] | IC50 (LXRβ): > 20000 nM
> 10000 | O=c1[nH]c2ccc(C(O)(C(F)(F)F)C(F)(F)F)cc2c2ccc(F)cc12 [Compound 34] | –
550 ± 110 | O=c1[nH]c2ccc(C(O)(C(F)(F)F)C(F)(F)F)cc2c2cc(F)ccc12 [Compound 35] | –
> 10000 | O=c1[nH]c2ccc(C(O)(C(F)(F)F)C(F)(F)F)cc2c2ccccc12 [Compound 1] | IC50 (LXRβ): 5100 nM
190 ± 95 | O=c1[nH]c2ccc(C(O)(C(F)(F)F)C(F)(F)F)cc2c2cccc(F)c12 [Compound 33] | –

From PMC6073568, “Efficient Lead Finding, Activity Enhancement and Preliminary Selectivity Control of Nuclear Receptor Ligands Bearing a Phenanthridinone Skeleton” (International Journal of Molecular Sciences, 2018)
